Results on 1 compound are retold here after patent US11085033B2, “Glycosylated oxalate decarboxylase and preparation and application thereof” (WUHAN KANGFUDE BIOTECHNOLOGY CO., LTD., priority 2016, dated 2021).

Assay [1] concerns Bacillus subtilis oxalate decarboxylase (OxDc). The following applies: even under a condition of an ideal pH value; read-out: Kin value; cited from earlier work.
Assay [2] addresses Agrocybe aegerita glycosylated oxalate decarboxylase (OxDc), naturally expressed by acid induction. The assay is described as follows: Determination of Km of Agrocybe aegerita oxalate decarboxylase by double reciprocal method; oxalate degradation by HPLC, 37° C. In kind it is biochemical. As to the method:
In this invention, high performance liquid chromatography (HPLC) is used to determine the activity of oxalate decarboxylase. The operation process is as follows: preheating 1.0 mL 5 mM (mmol/L) oxalate solution (25 mM citrate buffer solution contained, pH 3.0) at 37° C. for 10 min and adding 0.01-0.1 ml (added volume is adjusted according to enzyme concentration) solution containing oxalate decarboxylase or fungus powder suspension into the oxalate solution for reaction; adding 50 μL 2.5M (molar concentration) H2SO4 to inactivate the enzyme after reacting for 30 minutes; quickly centrifuging the reaction solution and collecting supernatant to determine the concentration of residual oxalate by using HPLC. One enzyme activity unit (U) is defined as the required enzyme amount to degrade 1 micromole oxalate per minute on this condition.
The enzyme activity of the purified glycosylated oxalate decarboxylase obtained in Embodiment 2 was determined at pH 3.0, and the result is shown in Table 1. […] Different enzyme batches show the Kin value between 0.03 and 1.0 mM at different pH (pH 2.5-6.0), and the average Kin value at optimal pH range of pH 2.5-3.0 is 0.06 mM, as is shown in Table 2.

For `O=C(O)C(=O)O` [oxalate], the Km was 4000 µM in assay [1]; 120 ± 40 µM in assay [2] (pH 3.0-3.5); 200 ± 30 µM in assay [2] (pH 3.5-4.0); 250 ± 80 µM in assay [2] (pH 4.0-4.5); 360 ± 130 µM in assay [2] (pH 4.5-5.0); 700 ± 300 µM in assay [2] (pH 5.0-6.0). For the same compound, the “Kin value (average at optimal pH)” value in assay [2] (optimal pH range pH 2.5-3.0) stood at 0.06 mM.
